# How the values were obtained:
# Details in all cases: treatment: drug alone; 5 days
# 769-P [1] = test: GI50, drug alone; higher = less potent
# Experimental: (§1)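 Primary HTS: 8 RCC cell lines treated with 8 doses (up to 10 uM) of each library drug alone for 5 days; viability read by CellTiter-Glo and normalised to DMSO. GI50 was fitted with XLfit (4-parameter), AUC is the area under the dose-response curve, and minimum viability is the lowest fraction of DMSO viability across doses.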
# 786-O [2] = test: GI50, drug alone; higher = less potent
# Experimental: as §1
# A498 [3] = test: GI50, drug alone; higher = less potent
# Experimental: as §1
# ACHN [4] = test: GI50, drug alone; higher = less potent
# Experimental: as §1
# CAKI-1 [5] = test: GI50, drug alone; higher = less potent
# Experimental: as §1
# SN12C [6] = test: GI50, drug alone; higher = less potent
# Experimental: as §1
# TK-10 [7] = test: GI50, drug alone; higher = less potent
# Experimental: as §1
# UO-31 [8] = test: GI50, drug alone; higher = less potent
# Experimental: as §1
# 769-P [9] = test: minimum viability across doses, drug alone, relative to DMSO (fraction); higher = less growth inhibition
# Experimental: as §1
# 786-O [10] = test: as above
# Experimental: as §1
# A498 [11] = test: as above
# Experimental: as §1
# ACHN [12] = test: as above
# Experimental: as §1
# CAKI-1 [13] = test: as above
# Experimental: as §1
# SN12C [14] = test: as above
# Experimental: as §1
# TK-10 [15] = test: as above
# Experimental: as §1
# UO-31 [16] = test: as above
# Experimental: as §1
# 769-P [17] = test: AUC of dose-response viability curve, drug alone (arbitrary (AUC of normalised viability)); higher = less growth inhibition
# Experimental: as §1
# 786-O [18] = test: as above
# Experimental: as §1
# A498 [19] = test: as above
# Experimental: as §1
# ACHN [20] = test: as above
# Experimental: as §1
# CAKI-1 [21] = test: as above
# Experimental: as §1
# SN12C [22] = test: as above
# Experimental: as §1
# TK-10 [23] = test: as above
# Experimental: as §1
# UO-31 [24] = test: as above
# Experimental: as §1
SMILES,"GI50, drug alone (786-O [2]) [µM]","GI50, drug alone (ACHN [4]) [µM]","GI50, drug alone (769-P [1]) [µM]","GI50, drug alone (A498 [3]) [µM]","GI50, drug alone (CAKI-1 [5]) [µM]","GI50, drug alone (SN12C [6]) [µM]","GI50, drug alone (TK-10 [7]) [µM]","GI50, drug alone (UO-31 [8]) [µM]",minimum viability across doses (769-P [9]),minimum viability across doses (786-O [10]),minimum viability across doses (A498 [11]),minimum viability across doses (ACHN [12]),minimum viability across doses (CAKI-1 [13]),minimum viability across doses (SN12C [14]),minimum viability across doses (TK-10 [15]),minimum viability across doses (UO-31 [16]),AUC of dose-response viability curve (769-P [17]),AUC of dose-response viability curve (786-O [18]),AUC of dose-response viability curve (A498 [19]),AUC of dose-response viability curve (ACHN [20]),AUC of dose-response viability curve (CAKI-1 [21]),AUC of dose-response viability curve (SN12C [22]),AUC of dose-response viability curve (TK-10 [23]),AUC of dose-response viability curve (UO-31 [24])
Cn1cc(C2=C(c3ccc(Cl)cc3Cl)C(=O)NC2=O)c2ccccc21,> 10,> 10,8.53,> 10,> 10,> 10,> 10,> 10,0.386,0.814,0.907,0.821,0.839,0.908,0.629,0.801,3.2,3.26,3.79,3.26,0.987,3.43,3.26,3.98
O=C1NCCc2[nH]c(-c3ccncc3)cc21,0.539,1.67,> 10,3.53,4.96,3.68,3.62,2.46,0.75,0.00414,0.0125,0.0193,0.12,0.0279,0.188,0.00654,3.24,2.22,3.22,2.7,3.31,3.27,2.88,3.43
O=C1c2ccccc2-c2n[nH]c3cccc1c23,> 10,8.89,> 10,> 10,6.06,> 10,> 10,> 10,0.799,0.545,0.999,0.421,0.251,0.822,0.562,0.52,3.24,2.81,4.19,3.44,3.09,3.37,3.07,3.08
N#CC[C@H](C1CCCC1)n1cc(-c2ncnc3[nH]ccc23)cn1,8.76,> 10,> 10,> 10,> 10,> 10,> 10,> 10,0.876,0.433,1.24,0.779,0.965,0.945,0.833,1.25,3.4,3.06,4.75,3.14,3.82,3.53,3.2,4.92
CS(=O)c1ccc(-c2nc(-c3ccc(F)cc3)c(-c3ccncc3)[nH]2)cc1 (stereo not given),> 10,0.142,> 10,> 10,> 10,> 10,> 10,> 10,0.892,0.774,1.12,0.577,0.931,0.84,0.713,1.06,3.37,3.47,4.51,2.51,3.69,3.43,2.98,4.33
CN(C)CCOc1ccc(-c2nc(-c3ccncc3)c(-c3ccc4c(c3)CC/C4=N/O)[nH]2)cc1,7.91,8.61,8.71,8.04,9.32,> 10,> 10,> 10,0.177,0.0071,0.0435,0.167,0.308,0.706,0.575,0.573,3.44,2.94,4.26,3.51,3.77,3.3,3.35,5.65

# The next lines start with results.
"GI50, drug alone (786-O [2]) [µM]","GI50, drug alone (ACHN [4]) [µM]",SMILES,"GI50, drug alone (769-P [1]) [µM]","GI50, drug alone (A498 [3]) [µM]","GI50, drug alone (CAKI-1 [5]) [µM]","GI50, drug alone (SN12C [6]) [µM]","GI50, drug alone (TK-10 [7]) [µM]","GI50, drug alone (UO-31 [8]) [µM]",minimum viability across doses (769-P [9]),minimum viability across doses (786-O [10]),minimum viability across doses (A498 [11]),minimum viability across doses (ACHN [12]),minimum viability across doses (CAKI-1 [13]),minimum viability across doses (SN12C [14]),minimum viability across doses (TK-10 [15]),minimum viability across doses (UO-31 [16]),AUC of dose-response viability curve (769-P [17]),AUC of dose-response viability curve (786-O [18]),AUC of dose-response viability curve (A498 [19]),AUC of dose-response viability curve (ACHN [20]),AUC of dose-response viability curve (CAKI-1 [21]),AUC of dose-response viability curve (SN12C [22]),AUC of dose-response viability curve (TK-10 [23]),AUC of dose-response viability curve (UO-31 [24])
> 10,> 10,NC(=O)c1ccc(-c2nc(-c3ccc4c(c3)OCO4)c(-c3ccccn3)[nH]2)cc1,> 10,> 10,> 10,> 10,> 10,> 10,0.838,0.578,0.906,0.564,0.723,0.556,0.613,0.941,3.26,2.72,3.96,3.21,3.3,2.86,2.89,4.85
4.16,3.83,Cc1[nH]c(/C=C2\C(=O)Nc3ccc(S(=O)(=O)Cc4c(Cl)cccc4Cl)cc32)c(C)c1C(=O)N1CCC[C@@H]1CN1CCCC1,4.02,8.15,3.83,4.02,4.44,> 10,0.00582,0.0112,0.0127,0.00233,0.00618,0.00551,0.00282,0.0156,2.89,2.86,3.88,3.18,3.17,2.93,3.12,4.41
0.12,0.276,CC(C)CC(=O)Nc1n[nH]c2c1CN(C(=O)C1CCN(C)CC1)C2(C)C,4.34,1.48,1.77,0.262,3.08,1.06,0.189,0.0023,0.00722,0.0324,0.0863,0.0129,0.174,0.00653,3.01,1.4,2.94,1.92,2.75,1.9,2.7,3
0.0275,0.18,OCc1ccc(-c2ccc(-c3ccc(CO)s3)o2)s1,0.0427,7.46,0.0112,0.582,0.0294,0.389,0.056,0.00113,0.419,0.0234,0.00454,0.0662,0.032,0.0063,1.27,1.04,3.4,1.76,0.628,2.29,1.03,2.33
